Laboratory results from patent publication US9023789B2, “Amylin analogs and pharmaceutical compositions thereof” (Novo Nordisk A/S, priority 2012, dated 2015).

Assays:
[1] = biological target: T1, human amylin receptor (membranes from Amylin 3(a)/CRE-luc cells) (Homo sapiens, UniProt O60896+P30988); assay: ASSAY (V) binding to the human amylin receptor (SPA, 125I-rat amylin);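 also: competition binding of cell membranes (35 ng/µL) mixed with SPA beads in 384-well plates at 40 µL total volume, read by scintillation counting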
T1 construct: expressed in transfected cells
T1 sequence (P30988 25-474): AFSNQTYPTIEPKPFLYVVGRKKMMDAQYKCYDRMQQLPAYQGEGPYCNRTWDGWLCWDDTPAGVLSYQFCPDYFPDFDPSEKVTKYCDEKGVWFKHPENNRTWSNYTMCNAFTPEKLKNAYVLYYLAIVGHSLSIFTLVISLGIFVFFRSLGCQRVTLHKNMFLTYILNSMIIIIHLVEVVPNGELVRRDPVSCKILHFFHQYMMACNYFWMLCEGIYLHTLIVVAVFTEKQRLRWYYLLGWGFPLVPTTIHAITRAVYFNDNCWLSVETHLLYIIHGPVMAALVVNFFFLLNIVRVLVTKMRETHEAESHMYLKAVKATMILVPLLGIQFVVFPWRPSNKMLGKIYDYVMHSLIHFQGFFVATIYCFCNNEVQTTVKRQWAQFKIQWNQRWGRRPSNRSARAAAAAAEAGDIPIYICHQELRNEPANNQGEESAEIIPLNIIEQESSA
T1 sequence (O60896 24-148 partner): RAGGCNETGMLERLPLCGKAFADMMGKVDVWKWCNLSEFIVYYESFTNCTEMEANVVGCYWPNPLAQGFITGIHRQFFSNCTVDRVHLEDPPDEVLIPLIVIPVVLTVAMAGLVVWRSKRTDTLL

[2] = biological target: T2, human amylin 3(a) receptor (human calcitonin receptor + RAMP-3) in BHK570 cells (Homo sapiens, UniProt O60896+P30988); assay: ASSAY (II)a functional assay, human amylin receptor (CRE luciferase); assay type: cell-based
T2 construct: expressed in transfected cells
Text: 1. Luciferase Assay Outline
Activation of calcitonin and amylin (coexpression of calcitonin receptor and receptor activity modifying proteins (RAMP)) receptors lead to increased intracellular concentrations of cAMP. Consequently, transcription is activated by promoters containing multiple copies of the cAMP response element (CRE). It is thus possible to measure amylin activity by the use of a CRE luciferase reporter gene introduced into BHK cells also expressing calcitonin or amylin receptors.
2. Construction of Calcitonin (a)- and Amylin 3(a)-Receptor/CRE-Luc Cell Line.
The cell line was further transfected with RAMP-3, using standard methods. This turns the calcitonin receptor into an amylin 3(a) receptor. Methotrexate, Neomycin, and Hygromycin are selection markers for luciferase, the calcitonin receptor, and RAMP-3, respectively.
To perform activity assays, BHK calcitonin (a) receptor- or amylin 3(a)-receptor/CRE-luc cells were seeded in white 96 well culture plates at a density of about 20.000 cells/well. […] After incubation overnight at 37° C. and 5% CO2, the growth medium was replaced by 50 μl/well assay medium (DMEM (without phenol red), Glutamax™, 10% FBS, and 10 mM Hepes, pH 7.4). Further, 50 μl/well of standard or sample in assay buffer were added. After 3 hours incubation at 37° C. and 5% CO2, the assay medium with standard or sample were removed and replaced by 100 μl/well PBS. Further, 100 μl/well LucLite™ was added. The plates were sealed and incubated at room temperature for 30 minutes. Finally, luminescence was measured on a TopCounter (Packard) in SPC (single photon counting) mode.

[3] = system: Sprague Dawley (SD) rats; assay: ASSAY (I) efficacy testing on appetite (food intake) using an ad libitum fed rat model; assay type: in vivo; settings: rat, 30 nmol/kg
Text: Sprague Dawley (SD) rats from Taconic Europe, Denmark are used for the experiments. The rats have a body weight 200-250 g at the start of experiment. The rats arrive at least 10-14 days before start of experiment to allow acclimatization to experimental settings. During this period the animals are handled at least 2 times. After arrival rats are housed individually for one week in a reversed light/dark phase (meaning that lights are off during daytime and on during nighttime) for two weeks. Since rats are normally active and eat their major part of their daily food intake during the dark period, rats are dosed in the morning right before lights are turned off. This set-up results in the lowest data variation and highst test sensitivity. The experiment is conducted in the rats' home cages and rats have free access to food and water throughout the acclimatization period and the experiment period. Each dose of derivative is tested in a group of 5-8 rats. A vehicle group of 6-8 rats is included in each set of testing. Rats are dosed once according to body weight with a 0.01-3 mg/kg solution administered intraperitoneally (ip), orally (po) or subcutaneously (sc). The time of dosing is recorded for each group. After dosing, the rats are returned to their home cages, where they then have access to food and water. The food consumption is recorded individually continuously by online registration or manually every hour for 7 hours, and then after 24 h and sometimes 48 h. At the end of the experimental session, the animals are euthanized.
The individual data are recorded in Microsoft excel sheets. Outliers are excluded after applying the Grubbs statistical evaluation test for outliers, and the result is presented graphically using the GraphPad Prism program.

[4] = biological target: T3, rat calcitonin receptor (Rattus norvegicus, UniProt P32214); assay: ASSAY (VIII) binding to the rat calcitonin receptor; settings: Table 7, read-out: rCTR bind IC50
T3 construct: expressed in transfected cells; host or cells: BHK tk'ts 13 (transient, FuGENE 6), membranes
T3 sequence (P32214 25-479 isoform P32214-2 limits assumed): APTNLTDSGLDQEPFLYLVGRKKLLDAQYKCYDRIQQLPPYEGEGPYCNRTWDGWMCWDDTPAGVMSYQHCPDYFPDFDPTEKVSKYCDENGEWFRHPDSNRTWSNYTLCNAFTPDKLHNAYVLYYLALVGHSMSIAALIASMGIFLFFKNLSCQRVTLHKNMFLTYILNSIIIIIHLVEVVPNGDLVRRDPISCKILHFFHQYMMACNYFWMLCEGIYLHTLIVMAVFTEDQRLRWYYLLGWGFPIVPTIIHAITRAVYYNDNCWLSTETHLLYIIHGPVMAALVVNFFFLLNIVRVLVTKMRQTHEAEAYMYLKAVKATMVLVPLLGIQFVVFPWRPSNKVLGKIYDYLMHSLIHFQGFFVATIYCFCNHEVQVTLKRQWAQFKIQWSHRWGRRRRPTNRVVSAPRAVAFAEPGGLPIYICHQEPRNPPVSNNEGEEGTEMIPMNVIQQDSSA
Protocol: Assay (VIII)—Determination of Binding to the Rat Calcitonin Receptor
(§1) The BHK tk′ts 13 cells were transiently transfected with rat calcitonin receptor using FuGENE® 6 (Roche), according to the manufacturer's recommendations. Cells were grown in DMEM with 10% FBS and 1% Pen/Strep. Approximately 48 hours after transfection, the cells were harvested and membranes were prepared.

[5] = biological target: T4, rat amylin receptor (rat calcitonin receptor + rat RAMP 3) (Rattus norvegicus, UniProt P32214+Q9JJ73); assay: ASSAY (VI) binding to the rat amylin receptor
T4 construct: expressed in transfected cells; host or cells: BHK tk'ts 13 (transient, FuGENE 6), membranes
T4 sequence (P32214 25-479 isoform P32214-2 limits assumed): T3 sequence (P32214 25-479 isoform P32214-2 limits assumed)
T4 sequence (Q9JJ73 23-147 partner): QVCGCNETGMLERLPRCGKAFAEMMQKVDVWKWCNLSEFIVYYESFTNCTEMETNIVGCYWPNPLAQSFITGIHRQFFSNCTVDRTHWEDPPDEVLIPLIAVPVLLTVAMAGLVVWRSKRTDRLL
Protocol: as §1, with “Assay (VI)—Determination of the Binding to the Rat Amylin Receptor […] The” for “The”, “Cells were grown in DMEM with 10% FBS and 1% Pen/Strep.” left out

Ratio hCT/hAmylin binding ([1]; Table 5, selectivity, hCTR bind IC50 / hAmylin-R bind IC50): 306.6
Ratio hCT/hAmylin binding ([1]; Table 5a, selectivity, hCTR bind IC50 / hAmylin-R bind IC50): 306.6
Ratio hCT/hAmylin binding ([1]; Table 5b, selectivity, hCTR bind IC50 / hAmylin-R bind IC50): 306.6
Ratio hCT/hAmylin binding ([1]; Table 5c, selectivity, hCTR bind IC50 / hAmylin-R bind IC50): 306.6
Ratio hCT/hAmylin binding ([1]; Table 7, human binding selectivity, included for comparison): 306.6
Ratio hCT/hAmylin binding ([1]; Table 7a (preferred compounds), human binding selectivity, included for comparison): 306.6
Ratio hCT/hAmylin binding ([1]; ratio of human calcitonin receptor binding IC50 to human amylin receptor binding IC50): 306.6
Ratio hCT/hAmylin funct. ([2]; hCTR funct. EC50 divided by hAmylin-R funct. EC50): 261.1
Ratio hCT/hAmylin funct. ([2]; hCTR funct. EC50 over hAmylin-R funct. EC50): 261.1
Ratio hCT/hAmylin funct. ([2]; human functional selectivity: hCTR funct. EC50 / hAmylin-R funct. EC50): 261.1
IC50 [4]: 536 nM
IC50 ([5]; Table 7, binding to rat amylin receptor, read-out: rAmylin-R bind IC50): 1.69 nM
Ratio rCT/rAmylin binding ([5]; Table 7, rat binding selectivity, rCTR IC50 / rAmylin-R IC50): 316.7
Ratio rCT/rAmylin binding ([5]; Table 7a (preferred compounds), rat binding selectivity, rCTR IC50 / rAmylin-R IC50): 316.7
Ratio rCT/rAmylin binding ([5]; ratio of rCTR bind IC50 to rAmylin-R bind IC50): 316.7
SMILES: CC[C@H](C)[C@H](NC(=O)[C@H](C)NC(=O)CNC(=O)[C@H](Cc1ccccc1)NC(=O)[C@H](CC(N)=O)NC(=O)[C@@H]1CCCN1C(=O)[C@H](CO)NC(=O)[C@H](CO)NC(=O)[C@H](Cc1c[nH]cn1)NC(=O)[C@H](CCCNC(=N)N)NC(=O)[C@H](CC(C)C)NC(=O)[C@H](Cc1ccccc1)NC(=O)[C@@H](CC(=O)O)NC(=O)[C@H](C)NC(=O)[C@H](CC(C)C)NC(=O)[C@H](CCCNC(=N)N)NC(=O)[C@H](CCC(N)=O)NC(=O)[C@@H](NC(=O)[C@H](C)NC(=O)[C@@H]1CSSC[C@H](NC(=O)[C@@H](N)CCCCNC(=O)CC[C@H](NC(=O)CC[C@H](NC(=O)CCCCCCCCCCCCCCCCCCC(=O)O)C(=O)O)C(=O)O)C(=O)N[C@@H](CC(N)=O)C(=O)N[C@@H]([C@@H](C)O)C(=O)N[C@@H](C)C(=O)N[C@@H]([C@@H](C)O)C(=O)N1)[C@@H](C)O)C(=O)N1CCC[C@H]1C(=O)N[C@@H](CO)C(=O)N[C@@H](CO)C(=O)N[C@H](C(=O)N[C@@H](CC(N)=O)C(=O)N[C@H](C(=O)NCC(=O)N[C@@H](CO)C(=O)N[C@@H](CCCNC(=N)N)C(=O)N[C@H](C(=O)N[C@@H](Cc1ccc(O)cc1)C(N)=O)[C@@H](C)O)C(C)C)[C@@H](C)O [Example 131]
Food intake reduction 0-24 h 30 nmol/kg (%) ([3]; 0-24 h): 17%
Food intake reduction 24-48 h 30 nmol/kg (%) ([3]; 24-48 h): 14%
